How the values were obtained:
HL 60 cells = assay: differentiation induction of HL 60 cells to macrophages (NBT reduction); type: cell-based, human; details: dose ratio test substance/calcitriol for comparable semi-maximum differentiation induction; 96 hours incubation
Method: The differentiation-stimulating action of calcitriol analogues is also detected quantitatively.
It is known in the literature [Mangelsdorf, D. J. et al., J. Cell. Biol. 98: 391 (1984)] that the treatment of human leukemia cells (promyelocyte cell line HL 60) in vitro with calcitriol induces the differentiation of cells to macrophages.
HL 60 cells are cultivated in tissue culture medium (RPMI 10% fetal calf serum) at 37° C. in an atmosphere of 5% CO2 in air.
For substance testing, the cells are centrifuged off, and 2.0×10^5 cells/ml in phenol red-free tissue culture medium is taken up. The test substances are dissolved in ethanol and diluted with tissue culture medium without phenol red to the desired concentration. The dilution stages are mixed with the cell suspension at a ratio of 1:10, and 100 μl each of this cell suspension that is mixed with substance is pipetted into an indentation of a 96-hole plate. For control, a cell suspension is mixed analogously with the solvent.
After incubation for 96 hours at 37° C. in 5% CO2 in air, 100 μl of an NBT-TPA solution (nitro blue tetrazolium (NBT), final concentration in the batch of 1 mg/ml, tetradecanoyl phorbolmyristate-13-acetate (TPA), final concentration in the batch of 2×10^−7 mol/l) is pipetted into each indentation of the 96-hole plate in the cell suspension.
By incubation for 2 hours at 37° C. and 5% CO2 in air, NBT is reduced to insoluble formazan because of the intracellular oxygen radical release, stimulated by TPA, in the cells that are differentiated to macrophages.
To complete the reaction, the indentations of the 96-hole plate are suctioned off, and the cells are affixed to the bottom of the plate by adding methanol and dried after affixing. To dissolve the intracellular formazan crystals that are formed, 100 μl of potassium hydroxide (2 mol/l) and 100 μl of dimethyl sulfoxide are pipetted into each indentation and ultrasonically treated for 1 minute. The concentration of formazan is measured by spectrophotometry at 650 nm.
As a yardstick for the differentiation induction of HL 60 cells to macrophages, the concentration of formed formazan applies.

[1] = metabolic stability in liver homogenate; type: in vitro ADME; details: half-life in the liver homogenate (rat)
Method: To determine the metabolic stability, the test substance is incubated with tissue homogenate (from the rat liver) in the presence of buffer systems. The drop in starting concentration is tracked as a function of time. After a certain time, the incubation is stopped, and the unaltered test substance is extracted from the homogenate (diethyl ether), concentrated by evaporation under nitrogen, isolated via HPLC (mobile solvent: acetonitrile/water) and detected using UV-absorption.

[2] = acute hypercalcemic action (serum-calcium) in rats; type: in vivo, rat; details: dose ratio test substance/calcitriol for comparable hypercalcemic action; one-time subcutaneous administration, male rats
Method: To determine the acute hypercalcemic action of various calcitriol derivatives, the test that is described below is carried out:
The action of control (solution base), reference substance (1,25-dihydroxy vitamin D3=calcitriol) and test substance is tested in each case after one-time subcutaneous administration in groups of 10 healthy male rats (140–170 g). During the testing time, the rats are kept in special cages to determine the excretion of water and mineral substances. Urine is collected in 2 fractions (0–16 hours and 16–22 hours). An oral dose of calcium (0.1 mmol of calcium in 6.5% alpha-hydroxypropylcellulose, 5 ml/animal) replaces at 1600 hours the calcium intake that is lacking by food deprivation. At the end of the test, the animals are killed by decapitation and exsanguinated to determine the serum-calcium values. For the primary screen test in vivo, an individual standard dose (200 μg/kg) is tested. For selected substances, the result is supported by establishing a dose-effect relation.
A hypercalcemic action is shown in serum-calcium level values that are higher than in the control.
The significance of differences between substance groups and controls and between test substance and reference substance are supported with suitable statistical processes.

calcitriol receptor = target: T1, calcitriol receptor (Sus scrofa, UniProt A3RGC1); assay: calcitriol-receptor test (competition with 3H-calcitriol); details: competition factor = concentration of test substance / concentration of calcitriol at 50% competition; protein extract from intestines of juvenile pigs
T1 sequence (A3RGC1 1-427): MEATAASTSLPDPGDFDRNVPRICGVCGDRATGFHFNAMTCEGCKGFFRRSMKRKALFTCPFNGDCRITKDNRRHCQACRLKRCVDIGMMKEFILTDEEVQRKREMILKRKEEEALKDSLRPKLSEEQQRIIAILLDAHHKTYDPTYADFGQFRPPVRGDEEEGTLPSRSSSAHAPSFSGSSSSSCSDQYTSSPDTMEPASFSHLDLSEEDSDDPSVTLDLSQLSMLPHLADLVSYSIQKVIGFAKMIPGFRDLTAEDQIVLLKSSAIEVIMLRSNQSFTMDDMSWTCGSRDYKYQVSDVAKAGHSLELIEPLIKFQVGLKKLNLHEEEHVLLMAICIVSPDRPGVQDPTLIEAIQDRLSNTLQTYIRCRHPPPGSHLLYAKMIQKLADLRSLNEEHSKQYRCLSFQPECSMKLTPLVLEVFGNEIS
Method: The vitamin D activity of the substances according to the invention is determined with the aid of the calcitriol-receptor test. It is carried out using a protein extract from the intestines of juvenile pigs.
Then, the samples are centrifuged at 10,000 g for 5 minutes at 4° C. The supernatant is decanted and measured in a β-counter after 1 hour of equilibration in Picofluor 15™.
The competition curves that are obtained at various concentrations of test substance as well as of reference substance (unlabeled calcitriol) at constant concentration of the reference substance (^3H-calcitriol) are placed in relation to one another, and a competition factor (KF) is determined.
It is defined as a quotient of the concentrations of the respective test substance and the reference substance, which are necessary for 50% competition:

SMILES | DR HL 60 (HL 60 cells) | T½ [1] [h] | DR Ca [2] | KF (calcitriol receptor) | half-life ([1]; read-out: T½) [h]
C=C1/C(=C\C=C2/CCC[C@]3(C)[C@@H]([C@H](C)/C=C/CC4(C(C)=O)CC4)CC[C@@H]23)C[C@@H](O)C[C@@H]1O [Compound 66, (5Z,7E,22E)-(1S,3R)-25-Acetyl-26,27-cyclo-9,10-secocholesta-5,7,10(19),22-tetraene-1,3-diol] | 0.5 | 1.83 | 30 | 10 | –
C=C1/C(=C\C=C2/CCC[C@]3(C)[C@@H]([C@H](C)/C=C/CC4(C(=O)CCC)CC4)CC[C@@H]23)C[C@@H](O)C[C@@H]1O [Compound 71, (5Z,7E,22E)-(1S,3R)-25-(1-Oxobutyl)-26,27-cyclo-9,10-secocholesta-5,7,10(19),22-tetraene-1,3-diol] | 1.7 | 2 | 100 | 9 | –
C=C1/C(=C\C=C2/CCC[C@]3(C)[C@@H]([C@H](C)/C=C/CC4(C(=O)CCCC)CC4)CC[C@@H]23)C[C@@H](O)C[C@@H]1O [Compound 76, (5Z,7E,22E)-(1S,3R)-25-(1-Oxopentyl)-26,27-cyclo-9,10-secocholesta-5,7,10(19),22-tetraene-1,3-diol] | 19 | >2 | >100 | 7 | –
C=C1C(=CC=C2CCCC3(C)C2CCC3C(C)C=CCC2(C(=O)CCCCC)CC2)CC(O)CC1O [Compound 81, (5Z,7E,22E)-(1S,3R)-25-(1-Oxohexyl)-26,27-cyclo-9,10-secocholesta-5,7,10(19),22-tetraene-1,3-diol] | 9 | >2 | >>300 | 40 | –
C=C1/C(=C\C=C2/CCC[C@]3(C)[C@@H]([C@H](C)/C=C/CCC4(C(C)=O)CC4)CC[C@@H]23)C[C@@H](O)C[C@@H]1O [Compound 126, (5Z,7E,22E)-(1S,3R)-25-Acetyl-26,27-cyclo-24a-homo-9,10-secocholesta-5,7,10(19),22-tetraene-1,3-diol] | 0.5 | 2 | 20 | 5 | –
C=C1/C(=C\C=C2/CCC[C@]3(C)[C@@H]([C@H](C)[C@@H](O)CCCC4(C(C)=O)CC4)CC[C@@H]23)C[C@@H](O)C[C@@H]1O [Compound 127, (5Z,7E)-(1S,3R,22S)-25-Acetyl-26,27-cyclo-24a-homo-9,10-secocholesta-5,7,10(19)-triene-1,3,22-triol] | 4 | 2 | >100 | 30 | –
C=C1C(=CC=C2CCCC3(C)C2CCC3C(C)C=CCCC2(C(=O)CCC)CC2)CC(O)CC1O [Compound 131, (5Z,7E,22E)-(1S,3R)-25-(1-oxobutyl)-26,27-cyclo-24a-homo-9,10-secocholesta-5,7,10(19) ,22-tetraene-1,3-diol] | 0.2 | 2 | 30 | 10 | –
C=C1C(=CC=C2CCCC3(C)C2CCC3C(C)C(O)CCCC2(C(=O)CCC)CC2)CC(O)CC1O [Compound 132, (5Z,7E)-(1S,3R,22S)-25-(1-Oxobutyl)-26,27-cyclo-24a-homo-9,10-secocholesta-5,7,10(19)-triene-1,3,22-triol] | 2 | 1.67 | >100 | 20 | –
C=C1C(=CC=C2CCCC3(C)C2CCC3C(C)C=CCCC2(C(=O)CCCC)CC2)CC(O)CC1O [Compound 136, (5Z,7E,22E)-(1S,3R)-25-(1-Oxopentyl)-26,27-cyclo-24a-homo-9,10-secocholesta-5,7,10(19),22-tetraene-1,3-diol] | 17 | >2 | >100 | 10 | –
C=C1/C(=C\C=C2/CCC[C@]3(C)[C@@H]([C@H](C)CCCC(C)(C)O)CC[C@@H]23)C[C@@H](O)C[C@@H]1O [calcitriol, 1α,25-dihydroxy vitamin D3, reference compound] | 1 | – | 1 | – | 2
